From patent US11084783B2, “O-alkyl-benzylideneguanidine derivatives and therapeutic use for the treatment of disorders associated with an accumulation of misfolded proteins” (INFLECTIS BIOSCIENCE, priority 2014, dated 2021)

Assays:
[1] = system: HeLa cells; assay: Cytoprotection from ER stress (tunicamycin), cell viability by WST-8; assay type: cell-based; design: key to Cytoprotection from ER stress compared to guanabenz: +: lower cytoprotective effect compared to Guanabenz; ++: similar cytoprotective effect compared to Guanabenz; +++: higher cytoprotective effect compared to Guanabenz; details: HeLa cells, 6 hour exposure to tunicamycin 5 μg/mL, compounds 0.5-10 μM, viability 48 h or 72 h
Description: Cytoprotection against ER stress can be measured by a suitable assay. For example, cytoprotection can be measured in HeLa cells in which ER stress is elicited by the addition of media containing tunicamycin, a mixture of homologous nucleoside antibiotics that inhibits the UDP-HexNAc: polyprenol-P HexNAc-1-P family of enzymes and is used to induce unfolded protein response. Cell viability can be detected in the presence and absence of inhibitor compounds after a set period of time, by measuring the reduction of WST-8 into formazan using a standard cell viability kit (such as Cell Viability Counting Kit-8 from Dojindo). Cytoprotection from ER stress is measured in terms of the percentage increase in viable cells (relative to control) after ER stress. Further details of a suitable assay are set forth in the accompanying Examples section.
This assay is described in Tsaytler et al. (Science 2011). HeLa Cells were cultured in Eagle's Minimum Essential Medium (EMEM) supplemented with Glutamine, Sodium Pyruvate, Non-Essential Amino Acids, Penicillin and Streptomycin containing 10% Foetal Bovine Serum (FBS), at 37° C. in 5% CO2 atmosphere. Cells were plated in 96 well plates at a density of 17,000 cells/mL the day before the treatment. ER stress was elicited by addition of 5 μg/mL tunicamycin (Sigma-Aldrich) together with PPP1R15A inhibitors (0.5-10 μM). Media were changed 6h later with fresh media and the cytoprotection was maintained by the addition of PPP1R15A inhibitors (0.5-10 μM). Cell viability was assessed by measuring the reduction of WST-8 into formazan using Cell Counting Kit-8 (Sigma) according to the supplier's recommendation, 48 h or 72h after tunicamycin treatment. Cytoprotection from ER stress is measured in terms of cytoprotective potency effect compared to the reference compound Guanabenz (Tsaytler et al., Science 2011) after ER stress: • ‘+’ no cytoprotective effect; • ‘+’ lower cytoprotective effect compared to Guanabenz; • ‘++’ similar cytoprotective effect compared to Guanabenz; • ‘+++’ higher cytoprotective effect compared to Guanabenz.
Table 1 summarizes the results of cytoprotective effect of different compounds of the invention, compared to guanabenz, after the stress induced by a 6 hour exposure of tunicamycin.

[2] = target: T1, human alpha2A receptor (Homo sapiens, UniProt P08913); assay: Functional GPCR assay for adrenergic α2A receptor (CellKey detection method); assay type: cell-based; details: agonist activity, CHO cells expressing human alpha2A receptor, impedance (CellKey); read-out: Functional adrenergic alpha2 receptor assay EC50
T1 construct: CHO cells endogenously expressing human alpha2A receptor; endogenous in cells; host or cells: CHO cells
T1 sequence (P08913 1-465): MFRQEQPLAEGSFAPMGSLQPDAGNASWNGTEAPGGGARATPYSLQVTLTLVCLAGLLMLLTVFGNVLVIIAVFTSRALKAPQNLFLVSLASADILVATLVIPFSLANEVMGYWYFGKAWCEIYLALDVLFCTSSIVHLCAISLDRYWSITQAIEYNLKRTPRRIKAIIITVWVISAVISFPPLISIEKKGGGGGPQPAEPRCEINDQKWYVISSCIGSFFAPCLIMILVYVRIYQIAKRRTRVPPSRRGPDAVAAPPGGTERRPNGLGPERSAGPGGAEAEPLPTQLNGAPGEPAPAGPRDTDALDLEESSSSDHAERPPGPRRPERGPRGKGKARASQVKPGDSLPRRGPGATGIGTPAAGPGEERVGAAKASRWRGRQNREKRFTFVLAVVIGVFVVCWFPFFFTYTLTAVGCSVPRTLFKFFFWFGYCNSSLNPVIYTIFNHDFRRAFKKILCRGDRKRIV
Experimental: The agonist activity of compounds was evaluated on CHO cells […] expressing human alpha2A receptor and was determined by measuring their effects on impedance modulation using the CellKey detection method. Cells were seeded onto 96-well plate at density of 6×10^4 cells/well in HBSS buffer (Invitrogen)+20 mM HEPES (Invitrogen) with 0.1% BSA and are allowed to equilibrate for 60 min at 28° C. before the start of the experiment. Plates were placed onto the system and measurements were made at a temperature of 28° C. Solutions were added simultaneously to all 96 wells using an integrated fluidics system: HBSS (basal control), reference agonist at 100 nM (stimulated control), reference agonist (EC50 determination) or the test compounds. Impedance measurements are monitored for 10 minutes after ligand addition. The standard reference agonist is epinephrine, which is tested in each experiment at several concentrations to generate a concentration-response curve from which its EC50 value is calculated.
Dose-response data from test compounds were analysed with Hill software using non-linear regression analysis of the concentration-response curves generated with mean replicate values using Hill equation curve fitting.

[3] = system: HeLa cells; details: tunicamycin; Tsaytler et al., Science 2011; read-out: median effective concentration, survival of HeLa cells exposed to ER stress; cited from earlier work
[4] = system: mouse embryonic fibroblasts lipofected with poly I:C; assay: In vitro inflammation/infection model: poly I:C induced mouse embryonic fibroblasts; assay type: cell-based; details: 25 μM, 6h, IFN-beta ELISA in culture supernatants
Experimental: Mouse Embryonic Fibroblasts (MEFs) were lipofected with poly I:C and treated with […] compounds of the invention (25 μM) for 6h. After 6h of culture, elF2alpha-phosphorylation (elF2a-P) and PPP1R15A (GADD34) expression was monitored by western blotting, while type-1 Interferon(IFN)-beta production was quantified in culture supernatants by ELISA. Control (nt) and poly I:C/DMSO are respectively negative and positive controls. Poly I:C (polyinosinic:polycytidylic acid or polyinosinic-polycytidylic acid sodium salt) is an immunostimulant used to simulate viral infections. Poly I:C which is structurally similar to double-stranded RNA, is known to interact with toll-like receptor 3 which is expressed in the intracellular compartments of B-cells and dendritic cells. Guanabenz (25 μM) was used as reference inhibitory compound.
MEFs were cultured in DMEM, 10% FCS (HyClone, Perbio), 100 units/ml penicillin, 100 μg/ml streptomycin, 2 mM glutamine, 1× MEM non-essential amino acids and 50 μM 2-mercaptoethanol. MEFS were treated for the indicated time with 10 μg/ml poly I:C (InvivoGen) in combination with lipofectamine 2000 (Invitrogen).
Cells were lysed in 1% Triton X-100, 50 mM Hepes, 10 mM NaCl, 2.5 mM MgCl2, 2 mM EDTA, 10% glycerol, supplemented with Complete Mini Protease Inhibitor Cocktail Tablets (Roche). Protein quantification was performed using the BCA Protein Assay (Pierce). 25-50 μg of Triton X-100-soluble material was loaded on 2%-12% gradient or 8% SDS-PAGE before immunoblotting and chemi-luminescence detection (SuperSignal West Pico Chemi-luminescent Substrate, Pierce). Rabbit polyclonal antibodies recognizing GADD34 (C-19) were from Santa Cruz Biotechnology and anti-elF2alpha[pS^52] were from Invitrogen.
IFN-beta quantification in culture supernatant was performed using the Mouse Interferon Beta ELISA kit (PBL Interferon Source) according to manufacturer instructions.
Normal response of MEFs to poly I:C is characterized by PPP1R15A expression, increase in elF2alpha-P (variable in time and related to the levels PPP1R15A expression) mediated by PKR activation and type-I IFN production (range 500 to 700 pg/ml). Knock out PPP1R15A MEFs are unable to produce this cytokine in response to poly I:C.
The potency of compounds of the invention to inhibit PPP1R15A was evaluated by measuring the increase of elF2alpha phosphorylation, the decrease of PPP1R15A expression due to its own pharmacological inhibition resulting in general protein synthesis inhibition and type-I IFN production.

[5] = system: rotenone injured primary mesencephalic rat neurons; assay: In vitro Parkinson's disease model: rotenone injured primary mesencephalic rat neurons; assay type: cell-based; details: rotenone 10 nM, 24 hours; total number of TH positive neurons
Experimental: Rat dopaminergic neurons were cultured as described by Schinelli et al., (1988 J. Neurochem 50 pp1900-07) and Visanji et al., (2008 FASEB J. 22(7) pp2488-97). Briefly, the midbrains obtained from 15-day old rat embryos (Janvier Labs, France) were dissected under a microscope. The embryonic midbrains were removed and placed in ice-cold medium of Leibovitz (L15, Pan Biotech, Batch: 9310614) containing 2% of Penicillin-Streptomycin (PS, Pan Biotech, Batch: 1451013) and 1% of bovine serum albumin (BSA, Pan Biotech, Batch: h140603). The ventral portion of the mesencephalic flexure, a region of the developing brain rich in dopaminergic neurons, was used for the cell preparations.
The midbrains were dissociated by trypsinisation for 20 min at 37° C. (Trypsin 0.05% EDTA 0.02%, PanBiotech, Batch: 5890314). The reaction was stopped by the addition of Dulbecco's modified Eagle's medium (DMEM, PanBiotech, Batch: 1300714) containing DNAase I grade II (0.1 mg/ml, PanBiotech, Batch: H140508) and 10% of foetal calf serum (FCS, Gibco, Batch: 41Q7218K). Cells were then mechanically dissociated by 3 passages through a 10 ml pipette. Cells were then centrifuged at 180×g for 10 min at +4° C. on a layer of BSA (3.5%) in L15 medium. The supernatant was discarded and the cell pellets were re-suspended in a defined culture medium consisting of Neurobasal (Invitrogen, Batch: 1636133) supplemented with B27 (2%, Invitrogen, Batch: 1660670), L-glutamine (2 mM, PanBiotech, Batch: 8150713) and 2% of PS solution and 10 ng/ml of Brain-derived neurotrophic factor (BDNF, PanBiotech, Batch: H140108) and 1 ng/ml of Glial-Derived Neurotrophic Factor (GDNF, Pan Biotech, Batch: H130917). Viable cells were counted in a Neubauer cytometer using the trypan blue exclusion test. The cells were seeded at a density of 40 000 cells/well in 96 well-plates pre-coated with poly-L-lysine (Corning Biocoat, Batch: 6614022) and maintained in a humidified incubator at 37° C. in 5% CO2/95% air atmosphere. Half of the medium was changed every 2 days with fresh medium.
On day 6 of culture, the medium was removed and fresh medium was added, without or with rotenone (Sigma, Batch: 021M2227V) at 10 nM diluted in control medium, 3 wells per condition were assessed. […]
The immunolabeled cultures were automatically examined with ImageXpress (Molecular device USA). For each condition, 20 automatically fields per well (representing ˜80% of the total surface of the well) from 3 wells were analyzed. The total number of TH neurons was automatically analyzed using Custom module editor (Molecular Devices, USA). […] All values were expressed as mean +/−SEM (s.e. mean) of the 1 culture (n=3 wells per condition per culture).

Row | EC50 [2] [µM] | SMILES | Cytoprotection from ER stress compared to guanabenz [1] | other results
1 | > 33.3 | CCSCCONC(=N)N/N=C/c1ccccc1Cl [Compound 15, 2-(2-chlorobenzylidene)-N-[2-(ethylsulfanyl)ethoxy]hydrazinecarboximidamide] | ++ | 
2 |  | NC(N)=N/N=C/c1c(Cl)cccc1Cl [guanabenz, 2-(2,6-dichlorobenzylidene)hydrazinecarboximidamide] |  | EC50 [3]: ~0.4 µM
3 | > 33.3 | CCOCCONC(=N)N/N=C/c1ccccc1Cl [Compound 13, 2-(2-chlorobenzylidene)-N-(2-ethoxyethoxy)hydrazinecarboximidamide] | ++ | 
4 | > 33.3 | N/C(=N\OCCO)N/N=C/c1ccccc1Cl [Compound 6, 2-(2-chlorobenzylidene)-N′-(2-hydroxyethoxy)hydrazinecarboximidamide] | ++ | prevention of type-I IFN production (FIG. 9) [4]: prevent type-I IFN production
5 |  | CC(C)=CCONC(=N)N/N=C/c1ccccc1Cl [Compound 14, 2-(2-chlorobenzylidene)-N′-[(3-methylbut-2-en-1-yl)oxy]hydrazinecarboximidamide] | ++ | 
6 |  | CCCO/N=C(\N)N/N=C/c1c(F)cccc1Cl [Compound 19, 2-(2-chloro-6-fluorobenzylidene)-N′-propoxyhydrazinecarboximidamide] | +++ | 
7 |  | CCCO/N=C(\N)N/N=C/c1c(Cl)cccc1Cl [Compound 21, 2-(2,6-dichlorobenzylidene)-N-propoxyhydrazinecarboximidamide] | ++ | 
8 |  | CCCO/N=C(\N)N/N=C/c1ccncc1Cl [Compound 23, 2-[(3-chloropyridin-4-yl)methylidene]-N-propoxyhydrazinecarboximidamide] | ++ | 
9 |  | C=CCO/N=C(\N)N/N=C/c1ccccc1Cl [Compound 5, 2-(2-chlorobenzylidene)-N′-(prop-2-en-1-yloxy)hydrazinecarboximidamide] | + | protection of rotenone injured primary mesencephalic rat neurons (FIG. 3) [5]: dose dependent protection
10 |  | CS(=O)(=O)CCCO/N=C(\N)N/N=C/c1ccccc1Cl [Compound 4, 2-(2-chlorobenzylidene)-N′-[3-(methylsulfonyl)propoxy]hydrazinecarboximidamide] | ++ | 
